According to patent US20250360109A1, “COMPOSITIONS AND METHODS FOR TREATING DEPRESSION IN FEMALES” (priority 2022, published 2025):

Columns and labels:
[1] = test system: adult subjects with major depressive disorder (MDD); test: Phase 2 placebo-controlled study in MDD, Clinical Global Impression-Severity (CGI-S) total score; assay type: in vivo, human; conditions: mITT; for Change from Baseline, CGI-S Total at Week 1, LSM Difference (95% CI) / Change from Baseline, CGI-S Total at Week 2, LSM Difference (95% CI) / Change from Baseline, CGI-S Total at Week 3, LSM Difference (95% CI) / Change from Baseline, CGI-S Total at Week 4, LSM Difference (95% CI): 20 mg/day vs Placebo; for CGI-S Total at Week 1, Mean (SD) / CGI-S Total at Week 1, Median / CGI-S Total at Week 2, Mean (SD) / CGI-S Total at Week 2, Median / CGI-S Total at Week 3, Mean (SD) / CGI-S Total at Week 3, Median / CGI-S Total at Week 4, Mean (SD) / CGI-S Total at Week 4, Median / Change from Baseline, CGI-S Total at Week 1, Mean (SD) / Change from Baseline, CGI-S Total at Week 1, Median / Change from Baseline, CGI-S Total at Week 2, Mean (SD) / Change from Baseline, CGI-S Total at Week 2, Median / Change from Baseline, CGI-S Total at Week 3, Mean (SD) / Change from Baseline, CGI-S Total at Week 3, Median / Change from Baseline, CGI-S Total at Week 4, Mean (SD) / Change from Baseline, CGI-S Total at Week 4, Median: 20 mg/day
Procedure: (§1) A Phase 2, multicenter, double-blind, randomized, placebo-controlled study of the safety and efficacy of SP-624 in the treatment of adult subjects with major depressive disorder (MDD) as defined by the Diagnostic and Statistical Manual of Mental Disorders, Fifth Edition (DSM-5) was carried out. Following the successful completion of a Screening Phase, subjects were randomized to one of two treatment groups in a 1:1 ratio and received Compound 1 (SP-624) or placebo over a treatment period of four weeks (Treatment Group #1: SP-624 20 mg/day; Treatment Group #2: Placebo).
(§2) Prior to initiating the 4-week treatment period, subjects completed a Screening/Baseline period of up to 28 days, during which time all screening assessments were performed, and any current depression medications discontinued. All screening assessments were completed before discontinuing any current depression medications. Subjects returned for a Baseline Visit to complete efficacy and safety assessments. During the treatment period, subjects returned to the investigative site to complete efficacy and safety assessments at the end of Weeks 1, 2, 3, and 4. After the final dose of study drug, subjects completed a follow-up period of two weeks and returned at the end of Weeks 5 and 6. Subjects may be treated with anti-depressant medications according to physician recommendations after completion of the Week 5 Visit.
(§3) Each dose of Compound 1 was supplied as two capsules, each containing 10 mg of active pharmaceutical ingredient (API). Matching placebo capsules identical in shape and color to the active capsules were used.
(§4) Secondary efficacy endpoints included: • Change from Baseline to Weeks 1, 2, and 3 in MADRS total score, • Change from Baseline to Weeks 1, 2, 3, and 4 in Clinical Global Impression-Severity (CGI-S) total score, • Change from Baseline to Week 5 and change from Week 4 to Week 5 in MADRS total score and CGI-S total score, • Change from Baseline to Week 2 and Week 4 in the 17-item Hamilton Depression Rating Scale (HAM D-17) total score, • Change from Baseline to Week 2 and Week 4 in the Sheehan Disability Scale (SDS), • Change from Baseline to Week 2 and Week 4 in the Quick Inventory of Depressive Symptomology-Self Report (QIDS-SR), and • Change from Baseline to Week 2 and Week 4 in the Quality of Life Enjoyment and Satisfaction Questionnaire-Short Form (Q-LES-Q-SF).

[2] = test system: adult subjects with major depressive disorder (MDD); test: Phase 2 placebo-controlled study in MDD, Sheehan Disability Scale (SDS); assay type: in vivo, human; conditions: mITT; for Change from Baseline, SDS Total at Week 2, LSM Difference (95% CI) / Change from Baseline, SDS Total at Week 4, LSM Difference (95% CI): 20 mg/day vs Placebo; for Change from Baseline, SDS Total at Week 2, Mean (SD) / Change from Baseline, SDS Total at Week 2, Median / Change from Baseline, SDS Total at Week 4, Mean (SD) / Change from Baseline, SDS Total at Week 4, Median / SDS Total at Week 2, Mean (SD) / SDS Total at Week 2, Median / SDS Total at Week 4, Mean (SD) / SDS Total at Week 4, Median: 20 mg/day
Procedure: as §1, §2, §3, §4

COC1=CC(=O)C[C@@H](C)[C@]12Oc1c(Cl)c(-c3nnc(C)o3)cc(OC)c1C2=O [SP-624, (2S,6′R)-7-Chloro-2′,4-dimethoxy-6′-methyl-6-(5-methyl-1,3,4-oxadiazol-2-yl)-3H-spiro[1-benzofuran-2,1′-cyclohex [2]ene]-3,4′-dione]
Change from Baseline, CGI-S Total at Week 1, LSM Difference (95% CI) ([1]; Female): −0.1 (−0.3, 0.1)
Change from Baseline, CGI-S Total at Week 2, LSM Difference (95% CI) ([1]; Female): −0.3 (−0.5, 0.0)
Change from Baseline, CGI-S Total at Week 3, LSM Difference (95% CI) ([1]; Female): −0.4 (−0.7, −0.1)
Change from Baseline, CGI-S Total at Week 4, LSM Difference (95% CI) ([1]; Female): −0.5 (−0.8, −0.1)
CGI-S Total at Week 1, Mean (SD) ([1]; Female): 4.0 (0.89)
CGI-S Total at Week 1, Median ([1]; Female): 4
CGI-S Total at Week 2, Mean (SD) ([1]; Female): 3.6 (0.97)
CGI-S Total at Week 2, Median ([1]; Female): 4
CGI-S Total at Week 3, Mean (SD) ([1]; Female): 3.4 (1.15)
CGI-S Total at Week 3, Median ([1]; Female): 4
CGI-S Total at Week 4, Mean (SD) ([1]; Female): 3.3 (1.20)
CGI-S Total at Week 4, Median ([1]; Female): 3
Change from Baseline, CGI-S Total at Week 1, Mean (SD) ([1]; Female): −0.5 (0.80)
Change from Baseline, CGI-S Total at Week 1, Median ([1]; Female): 0
Change from Baseline, CGI-S Total at Week 2, Mean (SD) ([1]; Female): −0.8 (0.96)
Change from Baseline, CGI-S Total at Week 2, Median ([1]; Female): −1
Change from Baseline, CGI-S Total at Week 3, Mean (SD) ([1]; Female): −1.1 (1.13)
Change from Baseline, CGI-S Total at Week 3, Median ([1]; Female): −1
Change from Baseline, CGI-S Total at Week 4, Mean (SD) ([1]; Female): −1.2 (1.14)
Change from Baseline, CGI-S Total at Week 4, Median ([1]; Female): −1
Change from Baseline, CGI-S Total at Week 1, LSM Difference (95% CI) ([1]; Male): 0.0 (−0.5, 0.4)
Change from Baseline, CGI-S Total at Week 2, LSM Difference (95% CI) ([1]; Male): −0.1 (−0.5, 0.3)
Change from Baseline, CGI-S Total at Week 3, LSM Difference (95% CI) ([1]; Male): 0.0 (−0.4, 0.4)
Change from Baseline, CGI-S Total at Week 4, LSM Difference (95% CI) ([1]; Male): 0.2 (−0.3, 0.6)
CGI-S Total at Week 1, Mean (SD) ([1]; Male): 3.9 (0.84)
CGI-S Total at Week 1, Median ([1]; Male): 4
CGI-S Total at Week 2, Mean (SD) ([1]; Male): 3.5 (1.18)
CGI-S Total at Week 2, Median ([1]; Male): 4
CGI-S Total at Week 3, Mean (SD) ([1]; Male): 3.4 (1.15)
CGI-S Total at Week 3, Median ([1]; Male): 4
CGI-S Total at Week 4, Mean (SD) ([1]; Male): 3.4 (1.27)
CGI-S Total at Week 4, Median ([1]; Male): 4
Change from Baseline, CGI-S Total at Week 1, Mean (SD) ([1]; Male): −0.5 (0.85)
Change from Baseline, CGI-S Total at Week 1, Median ([1]; Male): 0
Change from Baseline, CGI-S Total at Week 2, Mean (SD) ([1]; Male): −0.9 (1.16)
Change from Baseline, CGI-S Total at Week 2, Median ([1]; Male): −1
Change from Baseline, CGI-S Total at Week 3, Mean (SD) ([1]; Male): −1.0 (1.16)
Change from Baseline, CGI-S Total at Week 3, Median ([1]; Male): −1
Change from Baseline, CGI-S Total at Week 4, Mean (SD) ([1]; Male): −1.0 (1.27)
Change from Baseline, CGI-S Total at Week 4, Median ([1]; Male): −1
Change from Baseline, SDS Total at Week 2, LSM Difference (95% CI) ([2]; Female): −1.7 (−3.3, −0.1)
Change from Baseline, SDS Total at Week 4, LSM Difference (95% CI) ([2]; Female): −2.0 (−3.8, −0.2)
Change from Baseline, SDS Total at Week 2, Mean (SD) ([2]; Female): −4.7 (5.74)
Change from Baseline, SDS Total at Week 2, Median ([2]; Female): −4
Change from Baseline, SDS Total at Week 4, Mean (SD) ([2]; Female): −5.8 (6.70)
Change from Baseline, SDS Total at Week 4, Median ([2]; Female): −5
SDS Total at Week 2, Mean (SD) ([2]; Female): 11.8 (6.24)
SDS Total at Week 2, Median ([2]; Female): 11
SDS Total at Week 4, Mean (SD) ([2]; Female): 11.2 (6.98)
SDS Total at Week 4, Median ([2]; Female): 11
Change from Baseline, SDS Total at Week 2, LSM Difference (95% CI) ([2]; Male): 2.6 (0.3, 4.8)
Change from Baseline, SDS Total at Week 4, LSM Difference (95% CI) ([2]; Male): 1.3 (−1.3, 3.8)
Change from Baseline, SDS Total at Week 2, Mean (SD) ([2]; Male): −2.4 (5.27)
Change from Baseline, SDS Total at Week 2, Median ([2]; Male): −2
Change from Baseline, SDS Total at Week 4, Mean (SD) ([2]; Male): −5.0 (6.14)
Change from Baseline, SDS Total at Week 4, Median ([2]; Male): −4
SDS Total at Week 2, Mean (SD) ([2]; Male): 12.8 (5.99)
SDS Total at Week 2, Median ([2]; Male): 13
SDS Total at Week 4, Mean (SD) ([2]; Male): 10.5 (6.39)
SDS Total at Week 4, Median ([2]; Male): 10
